Structures are written as SMILES.

The data set has as its system CT26 colorectal carcinoma murine model. The conditions noted are these: mouse, in vivo. The protocol:
Efficacy was tested in murine model (BSPN02). CT26 colorectal cell lines in a murine model were chosen to conduct toxicity and safety studies in-vivo. The safety profile of Biomaterial-5-FU was compared with other control groups, and five aspects were evaluated as follows: (i) change in the body weight over time, (ii) organ weight and the ratio of organ to body weight, (iii) Hematoxylin-Eosin (H & E) staining for histological changes, (iv) a hepatic function panel, and (v) blood chemistry to assess impact on bone marrow. For H & E staining, five major organs (liver, heart, spleen, lungs, and kidneys) were collected from the mice at each time point. […] This toxic effect was not observed in mice treated with Biomaterial-5-FU. […] This toxic effect was not observed in mice treated with Biomaterial-5-FU.

Turning to `O=c1[nH]cc(F)c(=O)[nH]1` [IV 5-FU, 5-fluoro-1H-pyrimidine-2,4-dione], the “toxic effect: absolute numbers of white blood cells” value is “reduction in the absolute numbers of white blood cells”; the “toxic effect: number of monocytes and other leukocytes (bone marrow suppression)” value is “reduction in the number of monocytes and other leukocytes”.

The values above are taken from patent US20250177290A1, “DRUG-ELUTING SURGICAL ARTICLES AND METHODS OF USE THEREOF” (BIOSAPIEN INC., priority 2022, published 2025).
